Measurements from patent US20240317736A1, “DEUTERATED DERIVATIVE AS ATX INHIBITOR, AND APPLICATION THEREOF” (Xizang Haisco Pharmaceutical Co., Ltd., priority 2020, published 2024).
Values after ≈ are worked out from the molar mass of the structure shown. Like-named read-outs stand apart in the source and are kept apart here. Each block holds one molecule with its values, some of them ahead of it.

Key:
[1] = Dynamic vapor sorption (DVS); assay type: physicochemical; details: 25° C./80% RH
Procedure: A dynamic vapor sorption (DVS) curve is obtained on DVS Intrinsic of Surface Measurement Systems (SMS). The relative humidity at 25° C. is corrected by using the deliquescence points of LiCl, Mg(NO3)2 and KCl.
A free base (9.1 g, 15.3 mmol) of 2-((2-ethyl-6-fluoro-5-(4-(2-(3-hydroxyazetidin-1-yl)-2-oxoethyl)piperazin-1-yl)pyrazolo[1,5-a]pyridin-3-yl)(methyl-d3)amino)-4-(4-fluorophenyl)thiazole-5-carbonitrile (compound A, i.e., compound 3) prepared in example 3 was added to ethanol (50 mL), warmed to 75° C., stirred for 2 h and then dissolved. The mixture was gradually cooled to room temperature under slow stirring, with a large amount of white solids precipitated out, and filtered by suction. The filter cake was washed with ethanol (10 mL), and then dried under vacuum at 40° C. for 24 h to obtain a crystal form I of compound A as a white solid (6.2 g, yield: 68%). […] (initial temperature).

[2] = Stability test of crystal form (purity and crystal form change on storage); assay type: physicochemical; details: for Crystal form change / Purity: 12 days
Procedure: The crystal form I (example 11) was placed at 25° C./60% RH and 40° C./75% RH for 12 days; and then the sample purity was detected, and the crystal form change was observed.

[3] = Dynamic solubility test in water and biological vehicles; assay type: physicochemical; details: 37° C.; for solubility at 1 h / solubility at 2 h / solubility at 4 h / solubility at 24 h: read-out: S: Solubility; for pH: filtrate; for S: Solubility: LOQ: 0.03 μg/mL
Procedure: The dynamic solubility of the crystal form I of compound A (example 11) in water and three biological vehicles was evaluated. […] The samples at each time point were centrifuged (12000 rpm, 5 min) and filtered (0.45 μm PTFE filter), and the HPLC concentration and pH value of the filtrates were measured.
Preparation of simulated gastric fluid (SGF): 0.1 g of NaCl and 0.05 g of Triton X-100 were weighted to a 50 mL volumetric flask, and purified water was added to obtain a clear solution. 67.5 μL of concentrated hydrochloric acid (12 M) was added, and the pH was adjusted to 1.8 with 1 M hydrochloric acid or a 1 M NaOH solution. Purified water was added to a constant volume.
Preparation of simulated intestinal fluid (FaSSIF) in a fasted state: 0.17 g of anhydrous NaH2PO4, 0.021 g of NaOH and 0.31 g of NaCl were weighed to a 50 mL volumetric flask. About 48 mL of purified water was added to obtain a clear solution, and the pH was adjusted to 6.5 with 1 M hydrochloric acid or a 1 M NaOH solution. Purified water was added to a constant volume, and 0.11 g of SIF powder was weighed to obtain a clear solution.
Preparation of simulated intestinal fluid (FeSSIF) in a feeding state: 0.41 mL of glacial acetic acid, 0.20 g of NaOH and 0.59 g of NaCl were weighed to a 50 mL volumetric flask. About 48 mL of purified water was added to obtain a clear solution, and the pH was adjusted to 5.0 with 1 M hydrochloric acid or a 1 M NaOH solution. Purified water was added to a constant volume, and 0.56 g of SIF powder was weighed to obtain a clear solution.

[4] = phase II clinical trial; cited from earlier work

water adsorption [1]: 0.20%
Crystal form change ([2]; 25° C./60% RH): No
Purity ([2]; 25° C./60% RH): 99.41 area %
Crystal form change ([2]; 40° C./75% RH): No
Purity ([2]; 40° C./75% RH): 99.44 area %
Initial purity ([2]; before storage): 99.76 area %
solubility at 1 h ([3]; fasted-state simulated intestinal fluid (FaSSIF), pH 6.5, thermodynamic from solid, vehicle FaSSIF, 1 h): 320 µg/mL (≈ 537 µM)
solubility at 2 h ([3]; fasted-state simulated intestinal fluid (FaSSIF), pH 6.5, thermodynamic from solid, vehicle FaSSIF, 2 h): 270 µg/mL (≈ 453 µM)
solubility at 4 h ([3]; fasted-state simulated intestinal fluid (FaSSIF), pH 6.5, thermodynamic from solid, vehicle FaSSIF, 4 h): 360 µg/mL (≈ 604 µM)
solubility at 24 h ([3]; fasted-state simulated intestinal fluid (FaSSIF), pH 6.5, thermodynamic from solid, vehicle FaSSIF, 24 h): 210 µg/mL (≈ 353 µM)
pH ([3]; vehicle FaSSIF, 1 h): 4.9
pH ([3]; vehicle FaSSIF, 2 h): 5.0
pH ([3]; vehicle FaSSIF, 4 h): 4.9
pH ([3]; vehicle FaSSIF, 24 h): 4.9
pH ([3]; vehicle FeSSIF, 1 h): 8.5
pH ([3]; vehicle FeSSIF, 2 h): 8.5
pH ([3]; vehicle FeSSIF, 4 h): 8.5
pH ([3]; vehicle FeSSIF, 24 h): 8.5
pH ([3]; vehicle H2O, 1 h): 2.0
pH ([3]; vehicle H2O, 2 h): 2.2
pH ([3]; vehicle H2O, 4 h): 2.0
pH ([3]; vehicle H2O, 24 h): 2.1
pH ([3]; vehicle SGF, 1 h): 6.4
pH ([3]; vehicle SGF, 2 h): 6.5
pH ([3]; vehicle SGF, 4 h): 6.4
pH ([3]; vehicle SGF, 24 h): 6.4
solubility at 1 h ([3]; simulated gastric fluid (SGF), pH 1.8, simulated gastric fluid, thermodynamic from solid, vehicle SGF, 1 h): 15 µg/mL (≈ 25.2 µM)
solubility at 2 h ([3]; simulated gastric fluid (SGF), pH 1.8, simulated gastric fluid, thermodynamic from solid, vehicle SGF, 2 h): 15 µg/mL (≈ 25.2 µM)
solubility at 4 h ([3]; simulated gastric fluid (SGF), pH 1.8, simulated gastric fluid, thermodynamic from solid, vehicle SGF, 4 h): 14 µg/mL (≈ 23.5 µM)
solubility at 24 h ([3]; simulated gastric fluid (SGF), pH 1.8, simulated gastric fluid, thermodynamic from solid, vehicle SGF, 24 h): 14 µg/mL (≈ 23.5 µM)
S: Solubility ([3]; vehicle FeSSIF, 1 h): <LOQ
S: Solubility ([3]; vehicle FeSSIF, 2 h): <LOQ
S: Solubility ([3]; vehicle FeSSIF, 4 h): <LOQ
S: Solubility ([3]; vehicle FeSSIF, 24 h): <LOQ
solubility at 1 h ([3]; water, thermodynamic from solid, vehicle H2O, 1 h): > 5100 µg/mL
solubility at 2 h ([3]; water, thermodynamic from solid, vehicle H2O, 2 h): > 5200 µg/mL
solubility at 4 h ([3]; water, thermodynamic from solid, vehicle H2O, 4 h): > 5300 µg/mL
solubility at 24 h ([3]; water, thermodynamic from solid, vehicle H2O, 24 h): > 5300 µg/mL
SMILES: [2H]C([2H])([2H])N(c1nc(-c2ccc(F)cc2)c(C#N)s1)c1c(CC)nn2cc(F)c(N3CCN(CC(=O)N4CC(O)C4)CC3)cc12 [Compound A Crystal form I, 2-((2-ethyl-6-fluoro-5-(4-(2-(3-hydroxyazetidin-1-yl)-2-oxoethyl)piperazin-1-yl)pyrazolo[1,5-a]pyridin-3-yl)(methyl-d3)amino)-4-(4-fluorophenyl)thiazole-5-carbonitrile]

SMILES: CCc1nc2c(C)cc(N3CCN(CC(=O)N4CC(O)C4)CC3)cn2c1N(C)c1nc(-c2ccc(F)cc2)c(C#N)s1 [GLPG-1690]
Curative effect in IPF [4]: good curative effect
